Reference: patent US10738028B2, “Spiro three-membered ring, spiro five-membered ring peptide deformylase inhibitor and use thereof in antibacteria and anti-tumor” (priority 2016, dated 2020)
Values after ≈ are worked out from the molar mass of the structure shown. Like-named read-outs stand apart in the source and are kept apart here.

Experiments:
Assay type in all cases: cell-based
[1] = system: Enterococcus faecalis (EFA); experiment: MIC, two-fold agar dilution (CLSI), clinical isolates
Summary of the method: (§1)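 CLSI two-fold agar dilution; MIC of test samples read per tested strain.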

[2] = system: Enterococcus faecium (EFM); experiment: as above
Summary of the method: as §1

[3] = system: Escherichia coli (including ESBLs, non-ESBLs); experiment: as above
Summary of the method: as §1

[4] = system: Moraxella catarrhalis (BCA); experiment: as above; details: for Anti-bacterial activity (MIC), strain BCA 14-10: clinical isolate BCA 14-10
Summary of the method: as §1

[5] = system: Streptococcus pneoumoniae (SPN); experiment: as above
Summary of the method: as §1

[6] = system: methicillin-resistant Staphylococcus aureus (MRSA); experiment: as above
Summary of the method: as §1

[7] = system: methicillin-resistant Staphylococcus epidermidis (MRSE); experiment: as above
Summary of the method: as §1

[8] = system: methicillin-sensitive Staphylococcus aureus (MSSA); experiment: as above
Summary of the method: as §1

[9] = system: methicillin-sensitive Staphylococcus epidermidis (MSSE); experiment: as above
Summary of the method: as §1

[10] = system: HCT-116 colorectal cancer cell line; experiment: CCK-8 proliferation inhibition; details: concentration of 30 μM, 72 hours, CCK-8; for inhibition at 30 µM: Homo sapiens, HCT-116, 72 h
Summary of the method: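 Cells were plated overnight at 2000 cells/well, then compound in culture medium was added at a range of final concentrations. After 72 hours in a CO2 incubator, medium was replaced with 1:10 CCK-8 solution for the read-out.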

[11] = system: A549 lung cancer cell line; experiment: CCK-8 proliferation inhibition; details: Homo sapiens, A549, 72 h, concentration of 30 μM
Source text: (§2) 2. The present invention adopts the CCK-8 method to determine the proliferation inhibition effect of the spiro three-membered ring, spiro five-membered ring peptide deformylase inhibitor as described in Examples 1-80 against colorectal cancer cells, lung cancer cells, gastric cancer cells, liver cancer cells, and the like. […] The compound having the best activity synthesized in Example 64 was further tested for its inhibitory activity against other tumor cells including T cell leukemia, acute myeloid leukemia, cervical cancer, breast cancer, prostate cancer and osteosarcoma, and the like (see Table 7).
(§3) (1) HCT-116 colorectal cancer cell line, A549 lung cancer cell line, MGC-803 gastric cancer cell line, BEL-7402 liver cancer cell line, Jurkat T cell leukemia cell line, HL60 acute myeloid leukemia cell line, Hela cervical cancer cell line, MCF-7 breast cancer cell line, PC3 prostate cancer cell line and SAOS-2 osteosarcoma cell line were made into single cell suspension, 180 μL of which was inoculated into 96-well culture plate, which was cultured overnight in CO2 incubator (37° C., 5% CO2, 95% air).
(§4) (2) Each of the spiro three-membered ring, spiro five membered ring peptide deformylase inhibitors was dissolved in DMSO, and was further formulated into drug solution with required different final concentration using corresponding cell culture medium. The drug solutions were added to the above cells respectively (20 μL/well), with the control group added with 1‰ DMSO, and cultured in a CO2 incubator for 72 hours.
(§5) (3) After incubation for 72 hours, the culture solution was decanted, and 100 μL of 1:10 diluted CCK-8 solution was added.
(§6) Wherein, in step (1), the concentration of the single cell suspension was 2000 cells/well.
(§7) Wherein, in step (2), HCT-116 cells were cultured in McCoy's 5A medium (containing 10% newborn bovine serum, 1% double antibody); A549 and PC3 cells were cultured in F12 medium (containing 10% newborn bovine serum, 1% double antibody); MGC-803, BEL-7402, SAOS-2, Jurkat and HL60 cells were cultured in 1640 medium (containing 10% newborn bovine serum, 1% double antibody); and MCF-7 and Hela cells were cultured in DMEM high glucose medium (containing 10% newborn bovine serum, 1% double antibody).

[12] = system: BEL-7402 liver cancer cell line; experiment: CCK-8 proliferation inhibition; details: concentration of 30 μM; for Inhibition of proliferation, Liver cancer BEL-7402: 72 hours, 30 µM
Source text: as §2, §3, §4, §5, §6, §7

[13] = system: MGC-803 gastric cancer cell line; experiment: CCK-8 proliferation inhibition; details: Homo sapiens, MGC-803, 72 h, concentration of 30 μM
Source text: as §2, §3, §4, §5, §6, §7

[14] = read-out: HCT116 inhibition rate/%

## COC(=O)c1sccc1NC(=O)[C@@H]1CC2(CC2)CN1C(=O)[C@H](CC1CCCC1)CN(O)C=O [Example 34]
[1]; strain EFA 15-1
  MIC (anti-bacterial activity): 4 mg/L (≈ 8.38 µM)
[1]; strain EFA 15-2
  MIC (anti-bacterial activity): 4 mg/L (≈ 8.38 µM)
[1]; strain EFA 15-3
  MIC (anti-bacterial activity): 2 mg/L (≈ 4.19 µM)
[1]; strain EFA 15-4
  MIC (anti-bacterial activity): 4 mg/L (≈ 8.38 µM)
[1]; strain EFA 15-5
  MIC (anti-bacterial activity): 4 mg/L (≈ 8.38 µM)
[1]; strain EFA 15-6
  MIC (anti-bacterial activity): 4 mg/L (≈ 8.38 µM)
[1]; strain EFA 15-9
  MIC (anti-bacterial activity): 4 mg/L (≈ 8.38 µM)
[2]; strain EFM 15-1
  MIC (anti-bacterial activity): 2 mg/L (≈ 4.19 µM)
[2]; strain EFM 15-2
  MIC (anti-bacterial activity): 2 mg/L (≈ 4.19 µM)
[2]; strain EFM 15-3
  MIC (anti-bacterial activity): 0.25 mg/L (≈ 0.523 µM)
[2]; strain EFM 15-4
  MIC (anti-bacterial activity): 4 mg/L (≈ 8.38 µM)
[2]; strain EFM 15-5
  MIC (anti-bacterial activity): 4 mg/L (≈ 8.38 µM)
[2]; strain EFM 15-6
  MIC (anti-bacterial activity): 4 mg/L (≈ 8.38 µM)
[3]; strain ECO+ 15-1
  MIC (anti-bacterial activity): 128 mg/L (≈ 268 µM)
[3]; strain ECO+ 15-2
  MIC (anti-bacterial activity): 128 mg/L (≈ 268 µM)
[3]; strain ECO+ 15-3
  MIC (anti-bacterial activity): 128 mg/L (≈ 268 µM)
[3]; strain ECO+ 15-4
  MIC (anti-bacterial activity): 128 mg/L (≈ 268 µM)
[3]; strain ECO− 15-1
  MIC (anti-bacterial activity): 128 mg/L (≈ 268 µM)
[3]; strain ECO− 15-2
  MIC (anti-bacterial activity): 128 mg/L (≈ 268 µM)
[3]; strain ECO− 15-3
  MIC (anti-bacterial activity): 128 mg/L (≈ 268 µM)
[3]; strain ECO− 15-4
  MIC (anti-bacterial activity): 128 mg/L (≈ 268 µM)
[4]
  Anti-bacterial activity (MIC), strain BCA 14-10: 2 mg/L
[4]; strain BCA 14-1
  MIC (anti-bacterial activity): 4 mg/L (≈ 8.38 µM)
[4]; strain BCA 14-4
  MIC (anti-bacterial activity): 4 mg/L (≈ 8.38 µM)
[4]; strain BCA 14-5
  MIC (anti-bacterial activity): 1 mg/L (≈ 2.09 µM)
[4]; strain BCA 14-6
  MIC (anti-bacterial activity): 4 mg/L (≈ 8.38 µM)
[4]; strain BCA 14-7
  MIC (anti-bacterial activity): 2 mg/L (≈ 4.19 µM)
[4]; strain BCA 14-8
  MIC (anti-bacterial activity): 2 mg/L (≈ 4.19 µM)
[5]; strain SPN 16-2
  MIC (anti-bacterial activity): 0.125 mg/L (≈ 0.262 µM)
[5]; strain SPN 16-4
  MIC (anti-bacterial activity): 4 mg/L (≈ 8.38 µM)
[6]; strain MRSA 15-1
  MIC (anti-bacterial activity): 1 mg/L (≈ 2.09 µM)
[6]; strain MRSA 15-2
  MIC (anti-bacterial activity): 1 mg/L (≈ 2.09 µM)
[6]; strain MRSA 15-3
  MIC (anti-bacterial activity): 1 mg/L (≈ 2.09 µM)
[6]; strain MRSA 15-4
  MIC (anti-bacterial activity): 0.5 mg/L (≈ 1.05 µM)
[7]; strain MRSE 15-1
  MIC (anti-bacterial activity): 0.25 mg/L (≈ 0.523 µM)
[7]; strain MRSE 15-2
  MIC (anti-bacterial activity): 4 mg/L (≈ 8.38 µM)
[7]; strain MRSE 15-3
  MIC (anti-bacterial activity): 4 mg/L (≈ 8.38 µM)
[7]; strain MRSE 15-7
  MIC (anti-bacterial activity): 4 mg/L (≈ 8.38 µM)
[8]; strain MSSA 15-3
  MIC (anti-bacterial activity): 1 mg/L (≈ 2.09 µM)
[8]; strain MSSA 15-4
  MIC (anti-bacterial activity): 1 mg/L (≈ 2.09 µM)
[8]; strain MSSA 15-5
  MIC (anti-bacterial activity): 1 mg/L (≈ 2.09 µM)
[8]; strain MSSA 15-6
  MIC (anti-bacterial activity): 1 mg/L (≈ 2.09 µM)
[9]; strain MSSE 15-3
  MIC (anti-bacterial activity): 4 mg/L (≈ 8.38 µM)
[9]; strain MSSE 15-4
  MIC (anti-bacterial activity): 4 mg/L (≈ 8.38 µM)
[9]; strain MSSE 15-5
  MIC (anti-bacterial activity): 4 mg/L (≈ 8.38 µM)
[9]; strain MSSE 15-6
  MIC (anti-bacterial activity): 1 mg/L (≈ 2.09 µM)
[10]; Table 5, read-out: Inhibition of proliferation, Colorectal cancer HCT116
  inhibition at 30 µM: ≥ 30%
[10]; [14]
  inhibition at 30 µM: 36%
[11]
  inhibition at 30 µM: 35%
[12]; Homo sapiens, Bel-7402, 72 h
  inhibition at 30 µM: > 50%
[12]
  Inhibition of proliferation, Liver cancer BEL-7402: 63%
[13]
  inhibition at 30 µM: 26%

## O=CN(O)C[C@@H](CC1CCCC1)C(=O)N1CC2(CC2)C[C@H]1C(=O)Nc1ncco1 [Example 36]
[1]; strain EFA 15-1
  MIC (anti-bacterial activity): 16 mg/L (≈ 39.6 µM)
[1]; strain EFA 15-2
  MIC (anti-bacterial activity): 16 mg/L (≈ 39.6 µM)
[1]; strain EFA 15-3
  MIC (anti-bacterial activity): 16 mg/L (≈ 39.6 µM)
[1]; strain EFA 15-4
  MIC (anti-bacterial activity): 16 mg/L (≈ 39.6 µM)
[1]; strain EFA 15-5
  MIC (anti-bacterial activity): 16 mg/L (≈ 39.6 µM)
[1]; strain EFA 15-6
  MIC (anti-bacterial activity): 16 mg/L (≈ 39.6 µM)
[1]; strain EFA 15-9
  MIC (anti-bacterial activity): 16 mg/L (≈ 39.6 µM)
[2]; strain EFM 15-1
  MIC (anti-bacterial activity): 16 mg/L (≈ 39.6 µM)
[2]; strain EFM 15-2
  MIC (anti-bacterial activity): 8 mg/L (≈ 19.8 µM)
[2]; strain EFM 15-3
  MIC (anti-bacterial activity): 2 mg/L (≈ 4.94 µM)
[2]; strain EFM 15-4
  MIC (anti-bacterial activity): 8 mg/L (≈ 19.8 µM)
[2]; strain EFM 15-5
  MIC (anti-bacterial activity): 8 mg/L (≈ 19.8 µM)
[2]; strain EFM 15-6
  MIC (anti-bacterial activity): 8 mg/L (≈ 19.8 µM)
[3]; strain ECO+ 15-1
  MIC (anti-bacterial activity): 8 mg/L (≈ 19.8 µM)
[3]; strain ECO+ 15-2
  MIC (anti-bacterial activity): > 32 mg/L
[3]; strain ECO+ 15-3
  MIC (anti-bacterial activity): > 32 mg/L
[3]; strain ECO+ 15-4
  MIC (anti-bacterial activity): > 32 mg/L
[3]; strain ECO− 15-1
  MIC (anti-bacterial activity): > 32 mg/L
[3]; strain ECO− 15-2
  MIC (anti-bacterial activity): 32 mg/L (≈ 79.1 µM)
[3]; strain ECO− 15-3
  MIC (anti-bacterial activity): 32 mg/L (≈ 79.1 µM)
[3]; strain ECO− 15-4
  MIC (anti-bacterial activity): 32 mg/L (≈ 79.1 µM)
[4]
  Anti-bacterial activity (MIC), strain BCA 14-10: 2 mg/L
[4]; strain BCA 14-1
  MIC (anti-bacterial activity): 16 mg/L (≈ 39.6 µM)
[4]; strain BCA 14-4
  MIC (anti-bacterial activity): 16 mg/L (≈ 39.6 µM)
[4]; strain BCA 14-5
  MIC (anti-bacterial activity): 4 mg/L (≈ 9.89 µM)
[4]; strain BCA 14-6
  MIC (anti-bacterial activity): 16 mg/L (≈ 39.6 µM)
[4]; strain BCA 14-7
  MIC (anti-bacterial activity): 4 mg/L (≈ 9.89 µM)
[4]; strain BCA 14-8
  MIC (anti-bacterial activity): 8 mg/L (≈ 19.8 µM)
[5]; strain SPN 16-2
  MIC (anti-bacterial activity): 2 mg/L (≈ 4.94 µM)
[5]; strain SPN 16-4
  MIC (anti-bacterial activity): 16 mg/L (≈ 39.6 µM)
[6]; strain MRSA 15-1
  MIC (anti-bacterial activity): 4 mg/L (≈ 9.89 µM)
[6]; strain MRSA 15-2
  MIC (anti-bacterial activity): 8 mg/L (≈ 19.8 µM)
[6]; strain MRSA 15-3
  MIC (anti-bacterial activity): 4 mg/L (≈ 9.89 µM)
[6]; strain MRSA 15-4
  MIC (anti-bacterial activity): 8 mg/L (≈ 19.8 µM)
[7]; strain MRSE 15-1
  MIC (anti-bacterial activity): 4 mg/L (≈ 9.89 µM)
[7]; strain MRSE 15-2
  MIC (anti-bacterial activity): 8 mg/L (≈ 19.8 µM)
[7]; strain MRSE 15-3
  MIC (anti-bacterial activity): 8 mg/L (≈ 19.8 µM)
[7]; strain MRSE 15-7
  MIC (anti-bacterial activity): 8 mg/L (≈ 19.8 µM)
[8]; strain MSSA 15-3
  MIC (anti-bacterial activity): 8 mg/L (≈ 19.8 µM)
[8]; strain MSSA 15-4
  MIC (anti-bacterial activity): 8 mg/L (≈ 19.8 µM)
[8]; strain MSSA 15-5
  MIC (anti-bacterial activity): 8 mg/L (≈ 19.8 µM)
[8]; strain MSSA 15-6
  MIC (anti-bacterial activity): 4 mg/L (≈ 9.89 µM)
[9]; strain MSSE 15-3
  MIC (anti-bacterial activity): 8 mg/L (≈ 19.8 µM)
[9]; strain MSSE 15-4
  MIC (anti-bacterial activity): 8 mg/L (≈ 19.8 µM)
[9]; strain MSSE 15-5
  MIC (anti-bacterial activity): 8 mg/L (≈ 19.8 µM)
[9]; strain MSSE 15-6
  MIC (anti-bacterial activity): 8 mg/L (≈ 19.8 µM)
[10]; [14]
  inhibition at 30 µM: > 50%
[10]; 30 µM
  HCT116 inhibition rate/%: 60%
[11]
  inhibition at 30 µM: 26%
[12]
  Inhibition of proliferation, Liver cancer BEL-7402: 73%
[13]
  inhibition at 30 µM: 46%
